Measurements published in patent publication US4450269A, “Mono-5-substituted-3-chloro-4H-1,2,6-thiadiazin-4-one antifungal agents” (FMC Corporation, priority 1980, dated 1984).
Where a name gives a salt, the structure may show the parent alone. Read-outs that look alike come from different tables or passages of the source.

How the values were obtained:
Rhizoctonia solani = assay: Mycelial growth test; assay type: cell-based; conditions: RS; for inhibition at 5 ppm / inhibition at 10 ppm / inhibition at 20 ppm / inhibition at 40 ppm: Rhizoctonia solani, 72 h, read-out: Percent Fungus Growth Inhibition; for Percent Fungus Growth Inhibition: 72 hours, hydrochloride
Excerpt: | RS = Rhizoctonia solani

Phytophthora infestans = assay type: cell-based; conditions: PI, 48 hours

What does the source list for `Cc1ccccc1Oc1nsnc(Cl)c1=O` [Compound 22, 3-chloro-5-(2-methylphenoxy)-4H--1,2,6-thiadiazin-4-one]?
inhibition at 5 ppm (Rhizoctonia solani): 42%; inhibition at 10 ppm (Rhizoctonia solani; 10 ppm): 62%; inhibition at 20 ppm (Rhizoctonia solani; 20 ppm): 91%; inhibition at 40 ppm (Rhizoctonia solani; 40 ppm): 100%; Spore Germination Rating (Phytophthora infestans; 1.0 ppm): 0 (0-10); Spore Germination Rating (Phytophthora infestans; 2.5 ppm): 0 (0-10); Spore Germination Rating (Phytophthora infestans; 10 ppm): 0 (0-10); Spore Germination Rating (Phytophthora infestans; 40 ppm): 0 (0-10)

How did the inhibition at 5 ppm (Rhizoctonia solani) turn out when `O=C(Nc1ccccc1)Nc1ccc(Oc2nsnc(Cl)c2=O)cc1` [Compound 29, 3-chloro-5-[4-(3-phenylureido)-phenoxy]-4H--1,2,6-thiadiazin-4-one] was run?
Its inhibition at 5 ppm is 0%.

And the inhibition at 10 ppm (Rhizoctonia solani; 10 ppm)?
The inhibition at 10 ppm was 31%.

And the inhibition at 20 ppm (Rhizoctonia solani; 20 ppm)?
Its inhibition at 20 ppm is 0%.

What about the inhibition at 40 ppm (Rhizoctonia solani; 40 ppm) of the same molecule?
Its inhibition at 40 ppm is 29%.

And the “Spore Germination Rating” value (Phytophthora infestans; 1.0 ppm)?
Its value is 4 (80-100).

What about the “Spore Germination Rating” value (Phytophthora infestans; 2.5 ppm) of the same molecule?
The value was 4 (80-100).

And the “Spore Germination Rating” value (Phytophthora infestans; 10 ppm)?
The value was 4 (80-100).

And the “Spore Germination Rating” value (Phytophthora infestans; 40 ppm)?
The value was 3 (60-80).

Which inhibition at 5 ppm (Rhizoctonia solani) does the source give for `CCCCOc1ccc(Oc2nsnc(Cl)c2=O)cc1` [Compound 6, 3-chloro-5-(4-n-butoxyphenoxy)-4H--1,2,6-thiadiazin-4-one] here?
Its inhibition at 5 ppm is 0%.

And the inhibition at 10 ppm (Rhizoctonia solani; 10 ppm)?
The inhibition at 10 ppm was 0%.

And the inhibition at 20 ppm (Rhizoctonia solani; 20 ppm)?
The inhibition at 20 ppm was 0%.

And the inhibition at 40 ppm (Rhizoctonia solani; 40 ppm)?
The inhibition at 40 ppm was 20%.

And the “Spore Germination Rating” value (Phytophthora infestans; 1.0 ppm)?
The value was 2 (40-60).

What about the “Spore Germination Rating” value (Phytophthora infestans; 2.5 ppm) of the same molecule?
The value was 0 (0-10).

What about the “Spore Germination Rating” value (Phytophthora infestans; 10 ppm) of the same molecule?
Its value is 0 (0-10).

What about the “Spore Germination Rating” value (Phytophthora infestans; 40 ppm) of the same molecule?
Its value is 0 (0-10).

`Cc1ccc(Oc2nsnc(Cl)c2=O)c(C)c1` [Compound 23, 3-chloro-5-(2,4-dimethylphenoxy)-4H--1,2,6-thiadiazin-4-one] was tested. Which inhibition at 5 ppm (Rhizoctonia solani) did it give?
The inhibition at 5 ppm was 20%.

What about the inhibition at 10 ppm (Rhizoctonia solani; 10 ppm) of the same molecule?
Its inhibition at 10 ppm is 53%.

And the inhibition at 20 ppm (Rhizoctonia solani; 20 ppm)?
Its inhibition at 20 ppm is 73%.

What about the inhibition at 40 ppm (Rhizoctonia solani; 40 ppm) of the same molecule?
Its inhibition at 40 ppm is 78%.

What about the “Spore Germination Rating” value (Phytophthora infestans; 1.0 ppm) of the same molecule?
Its value is 4 (80-100).

What about the “Spore Germination Rating” value (Phytophthora infestans; 2.5 ppm) of the same molecule?
The value was 2 (40-60).

What about the “Spore Germination Rating” value (Phytophthora infestans; 10 ppm) of the same molecule?
The value was 2 (40-60).

What about the “Spore Germination Rating” value (Phytophthora infestans; 40 ppm) of the same molecule?
The value was 0 (0-10).

`Nc1ccc(Oc2nsnc(Cl)c2=O)cc1` [Compound 27, 5-(4-aminophenoxy)-3-chloro-4H--1,2,6-thiadiazine-4-one hydrochloride] was tested. Which “Percent Fungus Growth Inhibition” value (Rhizoctonia solani; 10 ppm) did it give?
The value was 31%.

What about the “Percent Fungus Growth Inhibition” value (Rhizoctonia solani; 20 ppm) of the same molecule?
The value was 24%.

And the “Percent Fungus Growth Inhibition” value (Rhizoctonia solani; 40 ppm)?
Its value is 64%.

What about the “Spore Germination Rating” value (Phytophthora infestans; 2.5 ppm, hydrochloride) of the same molecule?
The value was 3 (60-80).

Which inhibition at 5 ppm (Rhizoctonia solani) does the source give for `O=c1c(Cl)nsnc1Oc1ccc([N+](=O)[O-])cc1Cl` [Compound 53, 3-chloro-5-(2-chloro-4-nitrophenoxy)-4H--1,2,6-thiadiazin-4-one] here?
The inhibition at 5 ppm was 53%.

What about the inhibition at 10 ppm (Rhizoctonia solani; 10 ppm) of the same molecule?
The inhibition at 10 ppm was 53%.

What about the inhibition at 20 ppm (Rhizoctonia solani; 20 ppm) of the same molecule?
The inhibition at 20 ppm was 76%.

What about the inhibition at 40 ppm (Rhizoctonia solani; 40 ppm) of the same molecule?
The inhibition at 40 ppm was 76%.

And the “Spore Germination Rating” value (Phytophthora infestans; 1.0 ppm)?
The value was 1 (10-40).

What about the “Spore Germination Rating” value (Phytophthora infestans; 2.5 ppm) of the same molecule?
The value was 0 (0-10).

And the “Spore Germination Rating” value (Phytophthora infestans; 10 ppm)?
The value was 0 (0-10).

And the “Spore Germination Rating” value (Phytophthora infestans; 40 ppm)?
Its value is 0 (0-10).

For `CC(=O)Nc1cccc(Oc2nsnc(Cl)c2=O)c1` [Compound 42, 3-[(3-N--acetylamino)-phenoxy]-5-chloro-4H--1,2,6-thiadiazin-4-one], which inhibition at 5 ppm (Rhizoctonia solani) is on record?
Its inhibition at 5 ppm is 0%.

And the inhibition at 10 ppm (Rhizoctonia solani; 10 ppm)?
The inhibition at 10 ppm was 4%.

And the inhibition at 20 ppm (Rhizoctonia solani; 20 ppm)?
Its inhibition at 20 ppm is 31%.

What about the inhibition at 40 ppm (Rhizoctonia solani; 40 ppm) of the same molecule?
The inhibition at 40 ppm was 67%.

What about the “Spore Germination Rating” value (Phytophthora infestans; 1.0 ppm) of the same molecule?
The value was 4 (80-100).

And the “Spore Germination Rating” value (Phytophthora infestans; 2.5 ppm)?
Its value is 4 (80-100).

What about the “Spore Germination Rating” value (Phytophthora infestans; 10 ppm) of the same molecule?
Its value is 3 (60-80).

What about the “Spore Germination Rating” value (Phytophthora infestans; 40 ppm) of the same molecule?
The value was 0 (0-10).

`COc1ccc(Oc2nsnc(Cl)c2=O)cc1` [Compound 5, 3-chloro-5-(4-methoxyphenoxy)4H--1,2,6-thiadiazin-4-one] was tested. Which inhibition at 5 ppm (Rhizoctonia solani) did it give?
Its inhibition at 5 ppm is 0%.

What about the inhibition at 10 ppm (Rhizoctonia solani; 10 ppm) of the same molecule?
The inhibition at 10 ppm was 0%.

And the inhibition at 20 ppm (Rhizoctonia solani; 20 ppm)?
Its inhibition at 20 ppm is 38%.

What about the inhibition at 40 ppm (Rhizoctonia solani; 40 ppm) of the same molecule?
Its inhibition at 40 ppm is 64%.

And the “Spore Germination Rating” value (Phytophthora infestans; 1.0 ppm)?
Its value is 2 (40-60).

What about the “Spore Germination Rating” value (Phytophthora infestans; 2.5 ppm) of the same molecule?
The value was 2 (40-60).

And the “Spore Germination Rating” value (Phytophthora infestans; 10 ppm)?
Its value is 2 (40-60).

And the “Spore Germination Rating” value (Phytophthora infestans; 40 ppm)?
The value was 0 (0-10).

What does the source list for `O=c1c(Cl)nsnc1Oc1ccccc1Cl` [Compound 14, 3-chloro-5-(2-chlorophenoxy)-4H--1,2,6-thiadiazin-4-one]?
inhibition at 5 ppm (Rhizoctonia solani): 53%; inhibition at 10 ppm (Rhizoctonia solani; 10 ppm): 56%; inhibition at 20 ppm (Rhizoctonia solani; 20 ppm): 76%; inhibition at 40 ppm (Rhizoctonia solani; 40 ppm): 91%; Spore Germination Rating (Phytophthora infestans; 1.0 ppm): 0 (0-10); Spore Germination Rating (Phytophthora infestans; 2.5 ppm): 0 (0-10); Spore Germination Rating (Phytophthora infestans; 10 ppm): 0 (0-10); Spore Germination Rating (Phytophthora infestans; 40 ppm): 0 (0-10)

How did the inhibition at 5 ppm (Rhizoctonia solani) turn out when `O=c1c(Cl)nsnc1Oc1ccccc1` [Compound 2, 3-chloro-5-phenoxy-4H--1,2,6-thiadiazin-4-one] was run?
Its inhibition at 5 ppm is 0%.

And the inhibition at 10 ppm (Rhizoctonia solani; 10 ppm)?
The inhibition at 10 ppm was 42%.

And the inhibition at 20 ppm (Rhizoctonia solani; 20 ppm)?
Its inhibition at 20 ppm is 100%.

And the inhibition at 40 ppm (Rhizoctonia solani; 40 ppm)?
Its inhibition at 40 ppm is 78%.

What about the “Spore Germination Rating” value (Phytophthora infestans; 1.0 ppm) of the same molecule?
The value was 0 (0-10).

And the “Spore Germination Rating” value (Phytophthora infestans; 2.5 ppm)?
The value was 1 (10-40).

What about the “Spore Germination Rating” value (Phytophthora infestans; 10 ppm) of the same molecule?
The value was 1 (10-40).

What about the “Spore Germination Rating” value (Phytophthora infestans; 40 ppm) of the same molecule?
Its value is 0 (0-10).
